Like-named read-outs stand apart in the source and are kept apart here.
Tested on: cigarette smoke-induced 3-nitrotyrosine formation in the lung parenchyma
Conditions: for 3-nitrotyrosine stained surface area, mean ± SEM: n=5 mice, room air 0.24 ± 0.09, cigarette smoke + diluent 3.07 ± 0.39
Description: 5-amino-2,3-dihydro-1,4-phthalazinedione sodium salt Form I was tested in an isolated, ventilated and perfused mouse lung system that was stimulated with cigarette smoke.
The isolated, ventilated and perfused mouse lung system (ILU) is an established model for studying acute effects of various conditions and drugs on lung parenchyma and vasculature. It is mainly used for examining effects of hypoxia and for evaluating the efficacy of potential drugs on the hypoxic pulmonary vasoreaction (cf. Weissmann et al. (2006) Proc Natl Acad Sci USA 103: 19093-19098).
C57BL/6J mice (n=25, 5 per group; male/female, 3-6 months, 20-30 g; Charles River GmbH, Sulzfeld, Germany) were anesthetized with a ketamine (100 mg/kg body weight) and xylazine (20 mg/kg body weight) intraperitoneal injection (Ceva Tiergesundheit GmbH, Dusseldorf, Germany) containing heparin (50 I.E. heparin/g body weight; Ratiopharm GmbH, Ulm, Germany). The lungs and the heart were removed from the chest cavity and placed on the ILU system (see FIGS. 1A and 1B). Lungs were ventilated in an isolated chamber using normoxic gas (21% O2, 5% CO2, 74% N2; 150 breaths per minute at the PEEP (positive end-expiratory pressure) of 3 cm H2O) and perfused with a modified Krebs-Henseleit buffer (120.0 mM NaCl, 4.3 mM KCl, 1.1 mM KH2PO4, 2.4 mM CaCl2, 1.3 mM MgCl2, 13.14 mM glucose, 0.25 mM hydroxyethyl starch 200000/0.5, 25.0 mM NaHCO3 adjusted to a constant pH range of […] L-arginine; Serag-Wissner GmbH & Co. KG, Naila, Germany) at a temperature of 37° C. Lung weight, right and left ventricle pressure, as well as ventilatory pressure were monitored and recorded during the whole experimental procedure. After 5-10 minutes, when the lung was properly flushed and all the parameters were stable, 5-amino-2,3-dihydro-1,4-phthalazinedione sodium salt was applied by adding 150 μl of a stock solution to 15 ml of the circulating perfusion buffer. The substance was applied 10 minutes prior to the first cigarette smoke application. Cigarette smoke was applied via trachea while lung is perfused with the buffer containing 5-amino-2,3-dihydro-1,4-phthalazinedione sodium salt. Cigarette smoke was prepared freshly before each application, by burning one cigarette (research cigarettes 3R4F, University of Kentucky, USA) in one minute using normoxic gas at the flow of 11/min and collected in a 1 I glass bottle containing 5 g silica gel for removing the moist from the cigarette smoke. 50 ml of the cigarette smoke were taken via a syringe and applied to the lung via trachea (FIG. 1A) in deep breaths (periodic inflation for 3-4 s) over a period of 5 min. The application was done manually while carefully monitoring the inspiratory pressure to avoid damage of the lung. The cigarette smoke application was repeated three times with a 1 hour break in-between.
Five treatment groups (n=5, respectively) were investigated: • A: room air exposure • B: cigarette smoke+diluent (buffer solution) • C: cigarette smoke+0.5 mM 5-amino-2,3-dihydro-1,4-phthalazinedione sodium salt • D: cigarette smoke+1 mM 5-amino-2,3-dihydro-1,4-phthalazinedione sodium salt • E: cigarette smoke+2 mM 5-amino-2,3-dihydro-1,4-phthalazinedione sodium salt
5-amino-2,3-dihydro-1,4-phthalazinedione sodium salt Form I was dissolved in water for injection (vehicle) at the required concentrations described above. Stock solutions were prepared in water for injection. Further 1:100 dilutions were made with modified Krebs-Henseleit buffer (see above). Stock solutions were stored at −70° C. in appropriate aliquots. The required amount of stock solution was thawed, and the corresponding working solution was prepared for immediate use.
One hour after the third cigarette smoke application lungs were removed from the system and fixed by inflating with formalin solution (via trachea) at the pressure of 12-15 cm H2O for two hours at room temperature.

Nc1cccc2c(=O)[nH][nH]c(=O)c12.[Na] [5-amino-2,3-dihydro-1,4-phthalazinedione sodium salt]
effect on cigarette smoke induced 3-nitrotyrosine formation (in words) (0.5 mM in perfusion buffer (FIG. 2C)): moderate effect
effect on cigarette smoke induced 3-nitrotyrosine formation (in words) (1 mM in perfusion buffer (FIG. 2D)): almost completely abolished
effect on cigarette smoke induced 3-nitrotyrosine formation (in words) (2 mM in perfusion buffer (FIG. 2E)): almost completely abolished
3-nitrotyrosine stained surface area, mean ± SEM (cigarette smoke + 0.5 mM in perfusion buffer): 2.24 ± 0.28 % area
3-nitrotyrosine stained surface area, mean ± SEM (cigarette smoke + 1 mM in perfusion buffer): 0.72 ± 0.26 % area
3-nitrotyrosine stained surface area, mean ± SEM (cigarette smoke + 2 mM in perfusion buffer): 0.37 ± 0.13 % area
cigarette smoke-induced 3-nitrotyrosine formation in the lung parenchyma, conclusion (in words) (pre-treatment 10 minutes prior to the first cigarette smoke application, ILU model): prevents cigarette smoke-induced 3-nitrotyrosine formation
ROS/RNS levels in cigarette smoke-stimulated mouse lung (in words) (summary over 0.5, 1 and 2 mM): dose-dependent reduction of ROS/RNS levels down to control levels
